Measurements as given in ChEMBL document CHEMBL4138213, “Synthesis and biological characterization of ubenimex-fluorouracil conjugates for anti-cancer therapy” (Eur J Med Chem, 2018).
Calls of active or inactive are those of the source. The calls are words filed in the database; no cut-off is given here.

Columns and labels:
HepG2 [1] = assay: cells; settings: Homo sapiens, HepG2, 48 h
PLC-PRF-5 [2] = assay: Induction of apoptosis in human PLC/PRF/5 cells assessed as viable cells at 20 uM after 48 hrs by annexin-V-FITC/propidium iodide staining-based flow cytometric method (reference value: 93.7%); format: functional; settings: PLC-PRF-5, 48 h, read-out: Activity
HCT-116 [3] = assay: cells; settings: Homo sapiens, HCT-116, 48 h
U-266 [4] = assay: Antiproliferative activity against human U266 cells after 48 hrs by MTT assay; settings: U-266, 48 h
[5] = Terminal Half life in Wistar rat at 80 mg/kg, iv after 0.05 to 24 hrs by HPLC-MS/MS analysis; format: ADME, organism-based; settings: Wistar, in vivo, read-out: beta t1/2 (converted)
[6] = Antiproliferative activity against human ES2 cells in presence of 5-FU after 48 hrs by MTT assay; settings: ES-2, 48 h
HCT-116 [7] = assay: Antiproliferative activity against human HCT116 cells in presence of 5-FU after 48 hrs by MTT assay; settings: HCT-116, 48 h
Rattus norvegicus = assay: VRT (0 to infinity) in Wistar rat at 80 mg/kg, iv after 0.05 to 24 hrs by HPLC-MS/MS analysis; format: ADME, organism-based; settings: in vivo
[8] = Cmax in Wistar rat at 80 mg/kg, iv after 0.05 to 24 hrs by HPLC-MS/MS analysis; format: ADME, organism-based; set-up: dose 80 mg/kg, route intravenous; settings: in vivo
HepG2 [9] = assay: Antiproliferative activity against human HepG2 cells in presence of 5-FU after 48 hrs by MTT assay; format: functional, cell-based; settings: HepG2, 48 h
A549 = assay: Antiproliferative activity against human A549 cells in presence of 5-FU after 48 hrs by MTT assay; settings: A549, 48 h
[10] = Drug level in Wistar rat plasma treated with (5-fluoro-2,4-dioxo-3,4-dihydropyrimidin1(2H)-yl)methyl-2-((S)-2-((2S,3R)-3-amino-2-hydroxy-4-phenylbut-anamido)-4-methylpentanamido)acetate hydrochloride assessed as peptidase-mediated compound formation at 80 mg/kg, iv by HPLC-MS/MS analysis; format: ADME, organism-based; settings: in vivo
[11] = MRT (0 to infinity) in Wistar rat at 80 mg/kg, iv after 0.05 to 24 hrs by HPLC-MS/MS analysis; format: ADME, organism-based; settings: Wistar, in vivo
PLC-PRF-5 [12] = assay: Induction of apoptosis in human PLC/PRF/5 cells assessed as late apoptotic cells at 20 uM after 48 hrs by annexin-V-FITC/propidium iodide staining-based flow cytometric method (reference value: 0.341%); format: functional
PLC-PRF-5 [13] = assay: Downregulation of CD13 expression in human PLC/PRF/5 cells at 10 uM in presence of 5-FU after 48 hrs by flow cytometric method; format: functional, cell-based
PLC-PRF-5 [14] = assay: Induction of apoptosis in human PLC/PRF/5 cells assessed as necrotic cells at 20 uM in presence of 5-FU after 48 hrs by annexin-V-FITC/propidium iodide staining-based flow cytometric method (reference value: 0.106%); format: functional
PLC-PRF-5 [15] = assay: Induction of apoptosis in human PLC/PRF/5 cells assessed as necrotic cells at 20 uM after 48 hrs by annexin-V-FITC/propidium iodide staining-based flow cytometric method (reference value: 0.106%); format: functional
[16] = Antiproliferative activity against human H7402 cells in presence of 5-FU after 48 hrs by MTT assay; settings: H7402, 48 h
PLC-PRF-5 [17] = assay: Induction of apoptosis in human PLC/PRF/5 cells assessed as early apoptotic cells at 20 uM in presence of 5-FU after 48 hrs by annexin-V-FITC/propidium iodide staining-based flow cytometric method (reference value: 5.82%); format: functional
HUVEC = settings: Homo sapiens, 30 uM
PLC-PRF-5 [18] = assay: Induction of apoptosis in human PLC/PRF/5 cells assessed as viable cells at 20 uM in presence of 5-FU after 48 hrs by annexin-V-FITC/propidium iodide staining-based flow cytometric method (reference value: 93.7%); format: functional; settings: PLC-PRF-5, 48 h, read-out: Activity
PLC-PRF-5 [19] = assay: Induction of apoptosis in human PLC/PRF/5 cells assessed as late apoptotic cells at 20 uM in presence of 5-FU after 48 hrs by annexin-V-FITC/propidium iodide staining-based flow cytometric method (reference value: 0.341%); format: functional
PLC-PRF-5 [20] = assay: Antiproliferative activity against human PLC/PRF/5 cells in presence of 5-FU after 48 hrs by MTT assay; format: functional, cell-based; settings: PLC-PRF-5, 48 h
[21] = AUC (0 to infinity) in Wistar rat at 80 mg/kg, iv after 0.05 to 24 hrs by HPLC-MS/MS analysis; format: ADME, organism-based; set-up: dose 80 mg/kg, time infinity, route intravenous; settings: in vivo
PLC-PRF-5 [22] = assay: Downregulation of CD13 expression in human PLC/PRF/5 cells at 10 uM after 48 hrs by flow cytometric method; format: functional, cell-based
[23] = Apparent clearance in Wistar rat at 80 mg/kg, iv after 0.05 to 24 hrs by HPLC-MS/MS analysis; format: ADME, organism-based; settings: in vivo, read-out: CL(app) (converted)
PLC-PRF-5 [24] = assay: Induction of apoptosis in human PLC/PRF/5 cells assessed as early apoptotic cells at 20 uM after 48 hrs by annexin-V-FITC/propidium iodide staining-based flow cytometric method (reference value: 5.82%); format: functional
PLC-PRF-5 [25] = assay: Antiproliferative activity against human PLC/PRF/5 cells after 48 hrs by MTT assay; settings: PLC-PRF-5, 48 h
U-937 [26] = assay: Antiproliferative activity against human U937 cells in presence of 5-FU after 48 hrs by MTT assay; settings: U-937, 48 h
U-937 [27] = assay: cells; settings: Homo sapiens, U-937, 48 h
Description: Antiproliferative activity against human U937 cells after 48 hrs by MTT assay

U-266 [28] = assay: Antiproliferative activity against human U266 cells in presence of 5-FU after 48 hrs by MTT assay; format: functional, cell-based; settings: U-266, 48 h
[29] = Volume of distribution during elimination phase in Wistar rat at 80 mg/kg, iv after 0.05 to 24 hrs by HPLC-MS/MS analysis; format: ADME, organism-based; settings: in vivo, read-out: Vz

IC50 (HepG2 [1]): > 500 µM | IC50 (HCT-116 [3]): 358 µM | half-life [5]: 3.4 h | IC50 (HCT-116 [7]): 44.1 µM | VRT (Rattus norvegicus): 13.087 hr2 | Cmax [8]: 2300 ng/mL | IC50 (HepG2 [9]): 14.5 µM | IC50 (A549): 15.9 µM | Drug metabolism [10]: Metabolite_Detected | MRT inf [11]: 3.44 h | AUC(0-inf) [21]: 11500 ng·h/mL | clearance [23]: 116 mL/min/kg | IC50 (U-937 [26]): 9.56 µM | IC50 (U-937 [27]): 143 µM | Vd [29]: 34.2 L/kg
SMILES: CC(C)C[C@H](NC(=O)[C@@H](O)[C@H](N)Cc1ccccc1)C(=O)O [UBENIMEX]
viability at 20 µM (PLC-PRF-5 [2]): 83.4% | IC50 (U-266 [4]): > 500 µM | IC50 [6]: 37.1 µM | Activity (PLC-PRF-5 [12]): 3.59% | Activity (PLC-PRF-5 [13]): Active | Activity (PLC-PRF-5 [14]): 0% | Activity (PLC-PRF-5 [15]): 0.01% | IC50 [16]: 17.6 µM | Activity (PLC-PRF-5 [17]): 33.3% | inhibition (HUVEC): Active | viability at 20 µM (PLC-PRF-5 [18]): 64.3% | Activity (PLC-PRF-5 [19]): 2.38% | IC50 (PLC-PRF-5 [20]): 22.8 µM | Activity (PLC-PRF-5 [22]): Active | Activity (PLC-PRF-5 [24]): 13% | IC50 (PLC-PRF-5 [25]): > 500 µM | IC50 (U-266 [28]): 43.5 µM
